{"source": "patent US12583849B2", "about": "“KCNT1 inhibitors and methods of use” (Praxis Precision Medicines, Inc., priority 2020, dated 2026)"}
{"molecular_target": "T1, KCNT1 (KNa1.1, Slack) (Homo sapiens, UniProt Q5JUK3)", "T1 construct": "expressed in transfected cells; host or cells: HEK-TREX (tetracycline-inducible cell line)", "T1 sequence (Q5JUK3 1-1230)": "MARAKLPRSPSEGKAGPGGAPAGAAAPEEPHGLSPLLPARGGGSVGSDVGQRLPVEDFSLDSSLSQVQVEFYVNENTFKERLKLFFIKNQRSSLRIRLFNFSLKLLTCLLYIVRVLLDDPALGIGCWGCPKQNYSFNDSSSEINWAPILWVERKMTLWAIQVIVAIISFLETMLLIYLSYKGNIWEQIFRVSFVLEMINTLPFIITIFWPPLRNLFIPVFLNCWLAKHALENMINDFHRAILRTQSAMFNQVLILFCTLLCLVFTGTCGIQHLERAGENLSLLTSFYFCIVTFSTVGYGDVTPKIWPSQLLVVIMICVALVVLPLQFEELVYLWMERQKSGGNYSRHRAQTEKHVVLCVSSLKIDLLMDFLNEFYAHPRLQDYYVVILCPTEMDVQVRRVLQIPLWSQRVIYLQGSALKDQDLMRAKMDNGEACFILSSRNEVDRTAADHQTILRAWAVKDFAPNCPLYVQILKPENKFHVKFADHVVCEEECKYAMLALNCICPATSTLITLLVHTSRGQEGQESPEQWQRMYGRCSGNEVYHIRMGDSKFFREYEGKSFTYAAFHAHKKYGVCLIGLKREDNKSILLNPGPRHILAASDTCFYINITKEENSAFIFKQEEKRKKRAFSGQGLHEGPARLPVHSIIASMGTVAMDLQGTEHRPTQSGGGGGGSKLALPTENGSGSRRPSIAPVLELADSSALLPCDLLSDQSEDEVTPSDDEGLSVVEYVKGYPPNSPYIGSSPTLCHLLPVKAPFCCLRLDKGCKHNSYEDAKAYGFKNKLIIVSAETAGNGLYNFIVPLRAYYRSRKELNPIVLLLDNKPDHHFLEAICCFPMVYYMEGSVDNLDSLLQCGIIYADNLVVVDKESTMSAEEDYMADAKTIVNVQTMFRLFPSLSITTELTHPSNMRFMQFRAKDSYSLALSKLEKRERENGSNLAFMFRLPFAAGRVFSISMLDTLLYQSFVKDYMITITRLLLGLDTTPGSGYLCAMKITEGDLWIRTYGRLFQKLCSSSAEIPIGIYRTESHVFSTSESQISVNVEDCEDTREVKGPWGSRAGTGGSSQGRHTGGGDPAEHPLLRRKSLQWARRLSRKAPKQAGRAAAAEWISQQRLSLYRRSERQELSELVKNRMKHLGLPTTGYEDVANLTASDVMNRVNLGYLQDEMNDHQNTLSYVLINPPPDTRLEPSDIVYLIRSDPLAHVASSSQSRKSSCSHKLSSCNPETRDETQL", "experiment": "KCNT1-WT-Basal Patch Clamp Assay", "format": "cell-based", "conditions": "tetracycline inducible cell line (HEK-TREX); SyncroPatch 384PE automated patch clamp, perforated patch mode, room temperature, step from -80 mV to 0 mV", "how_it_was_run": "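Tetracycline-inducible HEK-TREX cells expressing human KCNT1, recorded by automated perforated patch clamp (10 μM escin) at room temperature, with 4 mM external K+ at pH 7.4. Mean current taken during a 100 ms step from −80 mV to 0 mV, averaged over 3 sweeps. IC50 from Hill fit of % inhibition; otherwise % inhibition at top concentration.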", "units": {"IC50": "µM"}}
{"smiles": "C[C@H](NC(=O)c1cccc(Cl)c1)c1nc(-c2ccnc(C3CCC3)c2)no1", "note": "[Compound I-100, (S)-3-chloro-N-(1-(3-(2-cyclobutylpyridin-4-yl)-1,2,4-oxadiazol-5-yl)ethyl) benzamide]", "IC50": "≤ 1"}
{"smiles": "C[C@H](NC(=O)c1ccc(S(=O)(=O)C2CC2)s1)c1nc(-c2ccnc(C3CC3)c2)no1", "note": "[Compound I-97, (S)—N-(1-(3-(2-cyclopropylpyridin-4-yl)-1,2,4-oxadiazol-5-yl)ethyl)-5-(cyclopropylsulfonyl)thiophene-2-carboxamide]", "IC50": "≤ 1"}
{"smiles": "CC(=O)N1CCC(C(=O)N[C@@H](C)c2nc(-c3ccnc(C(F)(F)F)c3)no2)CC1", "note": "[Compound I-73, 1-acetyl-N-[(1S)-1-[3-[2-(trifluoromethyl)-4-pyridyl]-1,2,4-oxadiazol-5-yl]ethyl]piperidine-4-carboxamide]", "IC50": "≥ 20"}
{"smiles": "C[C@H](NC(=O)c1ccccc1)c1nc(-c2ccnc(C3CC3)c2)no1", "note": "[Compound I-41, (S)—N-(1-(3-(2-cyclopropylpyridin-4-yl)-1,2,4-oxadiazol-5-yl)ethyl)benzamide]", "IC50": "≤ 1"}
{"smiles": "C[C@H](NC(=O)c1ccccc1)c1nc(-c2ccnc(C(F)(F)F)c2)no1", "note": "[Compound I-8, (S)—N-(1-(3-(2-(trifluoromethyl)pyridin-4-yl)-1,2,4-oxadiazol-5-yl)ethyl)benzamide]", "IC50": "≤ 1"}
{"smiles": "C[C@H](NC(=O)CC(F)(F)F)c1nc(-c2ccnc(C(F)(F)F)c2)no1", "note": "[III-2, (S)-3,3,3-trifluoro-N-(1-(3-(2-(trifluoromethyl)pyridin-4-yl)-1,2,4-oxadiazol-5-yl)ethyl)propenamide]", "IC50": "1 to 20"}
{"smiles": "C[C@H](NC(=O)c1cccc(OC(F)(F)F)c1)c1nc(-c2ccnc(C3CC3)c2)no1", "note": "[Compound I-103, (S)—N-(1-(3-(2-cyclopropylpyridin-4-yl)-1,2,4-oxadiazol-5-yl)ethyl)-3-(trifluoromethoxy)benzamide]", "IC50": "≤ 1"}
{"smiles": "C[C@H](NC(=O)[C@H]1CC[C@@H](C)CC1)c1nc(-c2ccnc(C(F)(F)F)c2)no1", "note": "[Compound I-36, cis-4-methyl-N—((S)-1-(3-(2-(trifluoromethyl)pyridin-4-yl)-1,2,4-oxadiazol-5-yl)ethyl)cyclohexane-1-carboxamide]", "IC50": "≤ 1"}
{"smiles": "C[C@H](NC(=O)c1cccc(C(F)(F)F)c1)c1nc(-c2ccnc(C3CC3)c2)no1", "note": "[Compound I-95, (S)—N-(1-(3-(2-cyclopropylpyridin-4-yl)-1,2,4-oxadiazol-5-yl)ethyl)-3-(trifluoromethyl)benzamide]", "IC50": "≤ 1"}
